Earlier results as cited in US8044033B2, “Fluorocytidine derivatives and COX-2 inhibitors for the treatment of cancer” (The Board of Regents of the University of Texas System, priority 2006, dated 2011).
Where two headings read alike, the source gives them in different places.

What was measured:
[1] = test system: metastatic colorectal cancer
[2] = First-line therapy, no radiation, cross-study comparison
[3] = first-line treatment of metastatic colorectal cancer

CCCCCOC(=O)Nc1nc(=O)n([C@@H]2O[C@H](C)[C@@H](O)[C@H]2O)cc1F [Capecitabine, capecitabine]
Complete response (%) [1, 2]: 1% | Median OS (months) [1, 2]: 12.4-13.2 months | Median OS (months) ([1]; Second-line therapy, no radiation, cross-study comparison): 12.7 months | overall survival [1, 3]: 12 months | response rate [1, 3]: 25% | time to tumor progression in half of the patients ([1]; monotherapy): 2-4 months | incidence of hand-foot syndrome (HFS) (1250 mg/m2/day bid for two weeks every 3 weeks): 54% | incidence of grade 2/3 HFS (earlier study, capecitabine dose 1000 mg/m2/d bid (Lin et al., 2002)): 34.2%
